Measurements as given in patent US20220257622A1, “COMPOSITION FOR MAINTAINING LACTOBACILLUS DOMINANCE” (Kimberly-Clark Worldwide, Inc., priority 2015, published 2022).

test system: L. crispatus and E. coli; assay: Therapeutic effect protocol: L. crispatus / E. coli co-culture in LAPT-g medium with carbon source; assay type: cell-based; details: therapeutic agent (carbon source) 1 wt/vol %; co-culture incubated anaerobically at 37° C.; measured 36 hours after inoculation
Description: Colonies of L. crispatus and E. coli were prepared as follows. A colony of L. crispatus was transferred to 7 ml MRS broth and incubated anaerobically (using BD GasPak EZ anaerobe container system with indicator) at 37° C. without shaking for 18-20 hours. A colony of E. coli was transferred to 5m1 TSB broth and incubated aerobically (shaking at 100 rpm) at 37° C. for 18-20 hours.
Colonies were then inoculated as follows. Bacterial cultures were gently vortexed and 1 mL of each culture was transferred to a corresponding 2.0 mL micro-centrifuge tube and then centrifuged for two minutes at 14,500 rpm. The cultural supernatant was removed and the cell pellet was re-suspended in 1 mL of 0.95% (wt/vol %) saline. The re-suspended colony was then centrifuged for two minutes at 14,500 rpms and the supernatant was removed. For L. crispatus, the pellet was re-suspended in 1 mL of 0.95% saline to achieve ˜10^7 -10^8 cfu/mL. For E. coli the pellet was re-suspended in 1 mL of 0.95% saline to achieve ˜10^8-10^9 cfu/mL.
Media were prepared as follows.
All of the ingredients in Table 1 were combined and the pH was adjusted to 6.5. The media were then autoclaved for 20 minutes at 125° C. To evaluate the effect of various saccharides and organic acids (noted as carbon sources below), the following samples were prepared:
Five milliliters (5 mL) of each medium was transferred to a test tube in duplicates for subsequent inoculation. A master mixture of L. crispatus and E. coli, prepared as described above, was prepared in 1,000:1 ratio. Each (5 ml) test tube was inoculated with the master mixture to give 10^5-10^6 total CFU L. crispatus and 100-1,000 total CFU E. coli per tube.
To establish a negative control, one tube was vortexed and 100 μL was removed to determine the initial cell concentrations by serial dilutions and plating (2 plates per dilution). L. crispatus is selected on MRS agar plates incubated anaerobically at 37° C. for two days. E. coli is selected on TSA plates incubated aerobically at 37° C. for one day. The co-cultures were incubated in an anaerobic container with BD GasPaks at 37° C. for 36 hours.
The effect of the carbon source on the ratio of L. crispatus to E. coli was measured 36 hours after inoculation. The co-culture tube was vortexed and 100 μL was removed to determine the final cell concentrations by serial dilutions and plating (2 plates per dilution). L. crispatus is selected on MRS agar plates incubated anaerobically at 37° C. for two days. E. coli is selected on TSA plates incubated aerobically at 37° C. for one day.
The therapeutic effect of the formulation was then measured using the assay described above in the Test Methods section above. The therapeutic effect is summarized below as the ratio of L. crispatus to E. coli.

Compared with OC[C@H]1O[C@@](CO)(OC[C@@]2(O[C@H]3O[C@H](CO)[C@@H](O)[C@H](O)[C@H]3O)O[C@H](CO)[C@@H](O)[C@@H]2O)[C@@H](O)[C@@H]1O [Sample 1, 1-Kestose], O=CC[C@H](O)[C@H](O)CO [Sample 2, 2-Deoxy-D-Ribose] is lower in “L. crispatus/ E. coli ratio” value: 640 for the first, 161 for the second.

Compared with OC[C@H]1O[C@@](CO)(O[C@H]2O[C@H](CO)[C@@H](O[C@H]3O[C@H](CO)[C@@H](O)[C@H](O)[C@H]3O)[C@H](O)[C@H]2O)[C@@H](O)[C@@H]1O [Sample 3, Erlose], OC[C@@H](O)[C@@H](O[C@H]1O[C@H](CO)[C@@H](O)[C@H](O)[C@H]1O)[C@H](O)[C@@H](O)CO [Sample 4, Maltitol] is higher in “L. crispatus/ E. coli ratio” value: 32.1 for the first, 202 for the second.

Compared with Maltotriose [Sample 5], Palatinose [Sample 6] is higher in “L. crispatus/ E. coli ratio” value: 535 for the first, 600 for the second.
